Read-outs that look alike come from different tables or passages of the source.
Columns and labels:
CSNK2A2 = CSNK2A2 (Homo sapiens, UniProt P19784); assay: NanoBRET in-cell target engagement in HEK293T cells: CSNK2A2; assay type: cell-based; set-up: full-length PKN3, CSNK2A1 or CSNK2A2 ORF; host or cells: HEK293T
Method: The NanoBRET assay was performed as described previously[28],[58]. In brief, full-length PKN3, CSNK2A1 or CSNK2A2 ORF (PKN3 vector was a kind gift of Promega, Vectors for […]: NV2981, NV1191) cloned in frame with a C-terminal NanoLuc-fusion, respectively, were transfected into HEK293T cells using FuGENE HD (Promega, E2312) and proteins were allowed to express for 20 h. Serially diluted inhibitor and NanoBRET Kinase Tracer K5 (Promega, N2530) at 500 nM (PKN3) or NanoBRET Kinase Tracer K10 (Promega, N2840) at 500 nM ([…]) were pipetted into 384-well plates using an Echo acoustic dispenser (Labcyte). The PKN3, CSNK2A1 or CSNK2A2 transfected cells were added at a density of 2 × 10^5 cells per ml after trypsinization and resuspending in Opti-MEM without phenol red (Life Technologies). The system was allowed to equilibrate for 2 h at 37 °C and 5% CO2 before BRET measurements. BRET signaling was measured by adding NanoBRET NanoGlo Substrate and Extracellular NanoLuc Inhibitor (Promega) according to the manufacturer’s protocol. Filtered luminescence was measured on a PHERAstar plate reader (BMG Labtech) equipped with a luminescence filter pair (450 nm BP filter (donor) and 610 LP filter (acceptor)). Competitive displacement data were then graphed using GraphPad Prism software (v.5.01) using a three-parameter curve fit with the following equation Y=bottom+(top−bottom)/1+10^logIC50−X×hillslope
Experiments were performed with at least two biological and two technical replicates.

FRK = target: T1, FRK (Homo sapiens, UniProt P42685); assay: Kinobeads two-dose competition binding: FRK; details: read-out: Lestaurtinib Drugmatrix value, Gene Name FRK; target FRK; each column = one Lestaurtinib control replicate (batch_R1-R3)
T1 construct: endogenous in cells

PIP4K2C = target: T2, PIP4K2C (Homo sapiens, UniProt Q8TBX8); assay: Kinobeads competition binding, Lestaurtinib control replicates: PIP4K2C; details: read-out: Lestaurtinib Drugmatrix value; Gene Name PIP4K2C; one column per experiment number and replicate (R1-R3)
T2 construct: a mixture of lysates from five cancer cell lines; endogenous in cells
T2 sequence (Q8TBX8 1-421): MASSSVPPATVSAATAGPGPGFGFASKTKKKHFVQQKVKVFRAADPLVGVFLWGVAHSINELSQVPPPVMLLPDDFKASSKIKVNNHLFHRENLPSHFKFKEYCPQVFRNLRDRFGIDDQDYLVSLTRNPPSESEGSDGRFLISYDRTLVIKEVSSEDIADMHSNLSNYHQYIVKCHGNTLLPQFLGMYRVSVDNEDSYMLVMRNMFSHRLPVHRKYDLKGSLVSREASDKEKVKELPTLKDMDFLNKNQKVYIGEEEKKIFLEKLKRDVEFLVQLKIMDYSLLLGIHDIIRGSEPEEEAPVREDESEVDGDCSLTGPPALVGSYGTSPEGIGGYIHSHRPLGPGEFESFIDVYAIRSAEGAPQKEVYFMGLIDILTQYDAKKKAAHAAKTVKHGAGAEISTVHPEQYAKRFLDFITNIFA

PRKACG = target: T3, PRKACG (Homo sapiens, UniProt P22612); assay: Kinobeads competition binding, Lestaurtinib control replicates: PRKACG; details: read-out: Lestaurtinib Drugmatrix value; Gene Name PRKACG; one column per experiment number and replicate (R1-R3)
T3 construct: endogenous in cells

TGFBR2 = target: T4, TGFBR2 (Homo sapiens, UniProt P37173); assay: Kinobeads full dose-response competition binding: TGFBR2; details: Gene Name TGFBR2
T4 construct: endogenous in cells

[1] = system: IL-10 secretion in primary bone marrow-derived dendritic cells (BMDCs); assay: IL-10 cytokine secretion assay (ELISA) in Zymosan-stimulated primary BMDCs; assay type: cell-based, mouse; details: murine BMDCs, inhibitor 30 min before Zymosan stimulation
Method: A subsequent full dose–response experiment confirmed potent and selective binding to SYK ( Kdapp = 58 nM, […] = 0.60; Extended Data Fig. 5a,b). […] One of the effects of Zymosan is that it activates Dectin-1 signaling, in turn activating SYK and leading to increased IL-10 cytokine production (Fig. 3c)[34]. Treatment of cells with the respective SYK inhibitors before Zymosan stimulation indeed led to decreased levels of IL-10 in a dose-dependent fashion (Fig. 3d). […] In line with the cytokine readout, we observed a dose depended reduction of pTyr525/526 indicating SYK inhibition in live cells (Fig. 3e and Extended Data Fig. 5c).
Primary BMDCs were obtained from 9-week-old C57BL/6 mice that were maintained under standard specific pathogen-free conditions. BMDCs were differentiated for 7 days in Roswell Park Memorial Institute medium (Gibco) and granulocyte-macrophage colony-stimulating factor. On day seven, BMDCs were seeded in 96-well plates at 10^5 cells per well in 100 µl of culture medium followed by incubation for 4 h at 37 °C. Subsequently, cells were incubated with SYK inhibitors for 30 min followed by stimulation with Zymosan (final concentration of 50 µg ml^−1; Invivogen) and dispersed in culture medium for 24 h. […] For cytokine secretion quantification, cell culture medium was collected and concentrations of IL-10 in the supernatant were determined using mouse enzyme-linked immunosorbent assay kits (IL-10: Invitrogen) according to the manufacturer’s protocol. Experiments were performed in biological triplicates.

Sequence of CSNK2A2 (P19784 whole entry, the tested form may be a part): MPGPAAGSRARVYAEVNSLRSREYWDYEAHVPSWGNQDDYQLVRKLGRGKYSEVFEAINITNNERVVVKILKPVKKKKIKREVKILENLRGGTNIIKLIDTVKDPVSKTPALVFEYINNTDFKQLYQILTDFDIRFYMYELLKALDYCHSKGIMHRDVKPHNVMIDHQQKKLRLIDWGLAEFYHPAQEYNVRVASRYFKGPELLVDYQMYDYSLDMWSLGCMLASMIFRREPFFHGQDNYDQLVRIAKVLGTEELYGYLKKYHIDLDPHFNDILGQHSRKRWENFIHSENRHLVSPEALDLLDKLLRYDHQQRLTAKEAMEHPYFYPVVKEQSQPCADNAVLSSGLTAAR
T4 sequence (P37173 23-567): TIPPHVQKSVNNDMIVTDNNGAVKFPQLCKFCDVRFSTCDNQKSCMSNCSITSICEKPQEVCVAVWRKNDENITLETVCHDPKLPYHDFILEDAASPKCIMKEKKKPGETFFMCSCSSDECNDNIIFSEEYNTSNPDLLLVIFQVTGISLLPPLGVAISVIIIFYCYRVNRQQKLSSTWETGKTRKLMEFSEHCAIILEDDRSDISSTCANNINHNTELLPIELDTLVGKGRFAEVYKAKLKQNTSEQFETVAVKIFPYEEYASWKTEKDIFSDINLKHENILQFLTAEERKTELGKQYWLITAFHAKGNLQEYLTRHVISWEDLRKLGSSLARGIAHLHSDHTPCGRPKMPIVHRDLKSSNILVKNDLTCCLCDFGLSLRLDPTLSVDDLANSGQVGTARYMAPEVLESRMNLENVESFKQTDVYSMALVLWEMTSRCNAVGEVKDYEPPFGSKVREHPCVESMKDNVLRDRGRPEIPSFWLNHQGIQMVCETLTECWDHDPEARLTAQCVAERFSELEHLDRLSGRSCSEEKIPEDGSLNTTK
T1 sequence (P42685 whole entry): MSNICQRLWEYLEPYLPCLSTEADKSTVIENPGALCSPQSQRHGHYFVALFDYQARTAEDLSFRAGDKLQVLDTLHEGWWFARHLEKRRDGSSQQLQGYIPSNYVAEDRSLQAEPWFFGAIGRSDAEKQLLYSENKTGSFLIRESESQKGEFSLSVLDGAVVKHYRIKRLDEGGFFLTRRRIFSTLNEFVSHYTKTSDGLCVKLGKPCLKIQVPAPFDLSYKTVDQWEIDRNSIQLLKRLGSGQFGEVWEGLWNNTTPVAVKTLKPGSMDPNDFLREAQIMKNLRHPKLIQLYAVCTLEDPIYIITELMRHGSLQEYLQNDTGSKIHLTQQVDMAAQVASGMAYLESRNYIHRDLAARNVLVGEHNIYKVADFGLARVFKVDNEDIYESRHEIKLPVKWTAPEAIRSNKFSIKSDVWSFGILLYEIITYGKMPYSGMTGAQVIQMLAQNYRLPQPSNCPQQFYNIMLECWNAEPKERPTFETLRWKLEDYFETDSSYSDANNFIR
T3 sequence (P22612 whole entry): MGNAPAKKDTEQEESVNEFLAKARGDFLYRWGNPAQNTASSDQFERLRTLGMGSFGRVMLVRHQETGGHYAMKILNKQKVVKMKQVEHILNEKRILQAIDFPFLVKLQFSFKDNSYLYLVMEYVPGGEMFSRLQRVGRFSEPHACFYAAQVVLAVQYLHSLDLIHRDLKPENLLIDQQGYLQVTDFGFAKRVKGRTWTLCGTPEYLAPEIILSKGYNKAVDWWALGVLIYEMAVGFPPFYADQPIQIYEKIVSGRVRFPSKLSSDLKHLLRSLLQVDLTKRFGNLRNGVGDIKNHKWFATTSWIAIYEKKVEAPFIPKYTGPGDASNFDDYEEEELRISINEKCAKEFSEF

## COc1cc(Nc2ncc3c(C)nc(-c4cc5ccccc5[nH]4)n3n2)cc(OC)c1OC [GW869516X]
CSNK2A2; CSNK2A2, replicate 1, read-out: NanoBRET Rep1
  IC50: 135 nM
CSNK2A2; CSNK2A2, replicate 2, read-out: NanoBRET Rep2
  IC50: 503 nM
CSNK2A2; HEK293T cells, in-cell target engagement, read-out: IC50 CSNK2A2 NanoBRET
  IC50: 319 nM

## C[C@]12O[C@H](C[C@]1(O)CO)n1c3ccccc3c3c4c(c5c6ccccc6n2c5c31)CNC4=O [Lestaurtinib]
FRK
  potency estimated from few doses: 751 nM
PIP4K2C
  potency estimated from few doses: 86.5 nM
PRKACG
  potency estimated from few doses: 769 nM

## NCc1ccc(-c2nc(-c3ccncc3)c(-c3ccc(Cl)c(O)c3)[nH]2)cc1 [SB-476429-A]
TGFBR2; 0.3nM compound, DMSO = 1
  Relative Intensity 0.3nM: 0.9776
TGFBR2; 1nM compound, DMSO = 1
  Relative Intensity 1nM: 1.003
TGFBR2; 3nM compound, DMSO = 1
  Relative Intensity 3nM: 1.034
TGFBR2; 10nM compound, DMSO = 1
  Relative Intensity 10nM: 1.093
TGFBR2; 30nM compound, DMSO = 1
  Relative Intensity 30nM: 0.9102
TGFBR2; 100nM compound, DMSO = 1
  Relative Intensity 100nM: 0.8621
TGFBR2; 300nM compound, DMSO = 1
  Relative Intensity 300nM: 0.7152
TGFBR2; 1000nM compound, DMSO = 1
  Relative Intensity 1000nM: 0.41
TGFBR2; EC50 with Correction, doses in nM, read-out: apparent Kd
  Kd: 767 nM
TGFBR2; eight-dose curve fit, doses in nM
  EC50: 871 nM

## Cn1cc(-c2nc(N[C@@H]3CCCC[C@@H]3N)c(F)c3c2C(=O)NC3)cn1 [TAK659]
[1]
  IL-10 levels: dose-dependent reduction

From publication PMC11062922 (Nature Chemical Biology, 2023)
